Common to all, as to assay: relative viability (nuclei count vs DMSO), 5 days (fraction); higher = more cells survive
Compound in assay [1]: CC1=C(CC(=O)O)c2cc(F)ccc2/C1=C\c1ccc([S+](C)[O-])cc1 [Sulindac] + CC(=O)c1c(C)c2cnc(Nc3ccc(N4CCNCC4)cn3)nc2n(C2CCCC2)c1=O [Palbociclib] (partner 0.5 µM)
The method, boiled down: (§1)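 After 5 days of treatment, lung cancer cells in 1536-well plates were fixed and stained in a single step (final 0.05% Triton X-100, 1% formaldehyde, 1 ug/ml Hoechst) and their nuclei counted on 4× images. Treatment had been applied by pin tool the day after seeding as one drug alone or as a fixed anchor-drug dose with five library-drug doses (not always all listed) in √10 steps. Relative viability is the nuclei count of treated wells divided by that of vehicle wells, and values are medians of duplicate plates.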

Compound in assay [2]: CN[C@@H]1C[C@H]2O[C@@](C)([C@@H]1OC)n1c3ccccc3c3c4c(c5c6ccccc6n2c5c31)C(=O)NC4 [Staurosporine] + CC(C)C[C@H](NC(=O)[C@H](Cc1ccccc1)NC(=O)c1cnccn1)B(O)O [Bortezomib] (partner 0.002 µM)
The method, boiled down:
as §1

Compound in assay [3]: CN[C@@H]1C[C@H]2O[C@@](C)([C@@H]1OC)n1c3ccccc3c3c4c(c5c6ccccc6n2c5c31)C(=O)NC4 [Staurosporine] + COc1cc2c(Oc3ccc(NC(=O)C4(C(=O)Nc5ccc(F)cc5)CC4)cc3F)ccnc2cc1OCCCN1CCOCC1 [Foretinib] (partner 0.25 µM)
The method, boiled down:
as §1

Compound in assay [4]: CN[C@@H]1C[C@H]2O[C@@](C)([C@@H]1OC)n1c3ccccc3c3c4c(c5c6ccccc6n2c5c31)C(=O)NC4 [Staurosporine] + CS(=O)(=O)CCNCc1ccc(-c2ccc3ncnc(Nc4ccc(OCc5cccc(F)c5)c(Cl)c4)c3c2)o1 [Lapatinib] (partner 2 µM)
An outline of the steps:
as §1

With NCI-H2405, the relative viability amounted to 0.531 in assay [1] (first compound 0.08 µM); 0.525 in assay [1] (first compound 0.253 µM); 0.5 in assay [1] (first compound 0.8 µM); 0.509 in assay [1] (first compound 2.53 µM); 0.593 in assay [1] (first compound 8 µM); 0.314 in assay [2] (first compound 0.005 µM). Further, the relative viability in assay [2] (first compound 0.01581 µM) is 0.165; in assay [2] (first compound 0.05 µM) it was 0.188; in assay [2] (first compound 0.1581 µM) it was 0.163; in assay [2] (first compound 0.5 µM), 0.134; in assay [3] (first compound 0.005 µM) it was 0.675; in assay [3] (first compound 0.01581 µM), 0.302. Further, the relative viability in assay [3] (first compound 0.1581 µM) was determined as 0.105; in assay [3] (first compound 0.5 µM), 0.0788; in assay [4] (first compound 0.005 µM) it was 0.395; in assay [4] (first compound 0.01581 µM), 0.148; in assay [4] (first compound 0.05 µM), 0.113; in assay [4] (first compound 0.1581 µM), 0.0819. Besides, in assay [4] (first compound 0.5 µM), the relative viability turned out to be 0.0797.

NCI-H3122: the relative viability in assay [1] (first compound 0.08 µM) worked out at 0.161; in assay [1] (first compound 0.253 µM), 0.183; in assay [1] (first compound 0.8 µM), 0.218; in assay [1] (first compound 2.53 µM), 0.204; in assay [1] (first compound 8 µM), 0.205; in assay [2] (first compound 0.005 µM), 1.04. Also, the relative viability is 0.355 in assay [2] (first compound 0.01581 µM); 0.947 in assay [2] (first compound 0.05 µM); 0.821 in assay [2] (first compound 0.1581 µM); 0.362 in assay [2] (first compound 0.5 µM); 1.03 in assay [3] (first compound 0.005 µM); 0.76 in assay [3] (first compound 0.05 µM). For the same cell line, the relative viability came out at 0.695 in assay [3] (first compound 0.1581 µM); 0.371 in assay [3] (first compound 0.5 µM); 1.01 in assay [4] (first compound 0.005 µM); 0.318 in assay [4] (first compound 0.01581 µM); 0.988 in assay [4] (first compound 0.05 µM); 0.665 in assay [4] (first compound 0.1581 µM). Also, the relative viability in assay [4] (first compound 0.5 µM) turned out to be 0.685.

Regarding PC-3 [JPC-3], the relative viability turned out to be 0.477 in assay [1] (first compound 0.08 µM); 0.521 in assay [1] (first compound 0.253 µM); 0.596 in assay [1] (first compound 0.8 µM); 0.502 in assay [1] (first compound 2.53 µM); 0.545 in assay [1] (first compound 8 µM); 0.866 in assay [2] (first compound 0.005 µM). The relative viability in assay [2] (first compound 0.05 µM) came out at 0.511; in assay [2] (first compound 0.1581 µM), 0.275; in assay [2] (first compound 0.5 µM) it was 0.316; in assay [3] (first compound 0.005 µM) it was 1.07; in assay [3] (first compound 0.01581 µM), 0.483; in assay [3] (first compound 0.05 µM) it was 0.525. Besides, the relative viability in assay [3] (first compound 0.1581 µM) was determined as 0.359; in assay [3] (first compound 0.5 µM), 0.4; in assay [4] (first compound 0.005 µM), 0.46; in assay [4] (first compound 0.05 µM), 0.429; in assay [4] (first compound 0.1581 µM), 0.287; in assay [4] (first compound 0.5 µM), 0.307.

Take PC-14: the relative viability in assay [1] (first compound 0.08 µM) is 0.562; in assay [1] (first compound 0.253 µM) it was 0.497; in assay [1] (first compound 0.8 µM), 0.489; in assay [1] (first compound 2.53 µM), 0.567; in assay [1] (first compound 8 µM), 0.758; in assay [2] (first compound 0.005 µM) it was 0.838. Further, the relative viability is 0.428 in assay [2] (first compound 0.01581 µM); 0.293 in assay [2] (first compound 0.05 µM); 0.0723 in assay [2] (first compound 0.1581 µM); 0.065 in assay [2] (first compound 0.5 µM); 0.929 in assay [3] (first compound 0.005 µM); 0.718 in assay [3] (first compound 0.01581 µM). Further, the relative viability in assay [3] (first compound 0.05 µM) was determined as 0.38; in assay [3] (first compound 0.1581 µM), 0.102; in assay [3] (first compound 0.5 µM) it was 0.0787; in assay [4] (first compound 0.005 µM) it was 0.293; in assay [4] (first compound 0.01581 µM), 0.247; in assay [4] (first compound 0.05 µM), 0.0956. Besides, the relative viability in assay [4] (first compound 0.1581 µM) turned out to be 0.0886; in assay [4] (first compound 0.5 µM), 0.0786.

As for RERF-LC-KJ, the relative viability stood at 1.1 in assay [1] (first compound 0.08 µM); 1.11 in assay [1] (first compound 0.253 µM); 1.04 in assay [1] (first compound 0.8 µM); 1.12 in assay [1] (first compound 2.53 µM); 1.07 in assay [1] (first compound 8 µM); 1.15 in assay [2] (first compound 0.005 µM). For the same cell line, the relative viability in assay [2] (first compound 0.01581 µM) came to 0.926; in assay [2] (first compound 0.05 µM), 0.674; in assay [2] (first compound 0.1581 µM), 0.322; in assay [2] (first compound 0.5 µM), 0.242; in assay [3] (first compound 0.005 µM), 0.876; in assay [3] (first compound 0.01581 µM), 0.824. Moreover, the relative viability amounted to 0.702 in assay [3] (first compound 0.05 µM); 0.491 in assay [3] (first compound 0.1581 µM); 0.191 in assay [3] (first compound 0.5 µM); 0.878 in assay [4] (first compound 0.005 µM); 0.821 in assay [4] (first compound 0.01581 µM); 0.734 in assay [4] (first compound 0.05 µM). Besides, the results for the relative viability in assay [4] (first compound 0.1581 µM) and in assay [4] (first compound 0.5 µM) were 0.424 and 0.245, respectively.

Turning to SK-LU-1, the relative viability was found to be 0.387 in assay [1] (first compound 0.08 µM); 0.417 in assay [1] (first compound 0.253 µM); 0.464 in assay [1] (first compound 0.8 µM); 0.369 in assay [1] (first compound 2.53 µM); 0.408 in assay [1] (first compound 8 µM); 0.906 in assay [2] (first compound 0.005 µM). Moreover, the relative viability in assay [2] (first compound 0.05 µM) was found to be 0.255; in assay [2] (first compound 0.1581 µM), 0.2; in assay [2] (first compound 0.5 µM), 0.179; in assay [3] (first compound 0.005 µM) it was 0.267; in assay [3] (first compound 0.01581 µM) it was 0.192; in assay [3] (first compound 0.1581 µM), 0.119. Also, the relative viability was determined as 0.132 in assay [3] (first compound 0.5 µM); 0.611 in assay [4] (first compound 0.005 µM); 0.266 in assay [4] (first compound 0.01581 µM); 0.153 in assay [4] (first compound 0.05 µM); 0.162 in assay [4] (first compound 0.1581 µM); 0.16 in assay [4] (first compound 0.5 µM).

Regarding SW 1573, the relative viability in assay [1] (first compound 0.08 µM) stood at 0.451; in assay [1] (first compound 0.253 µM), 0.406; in assay [1] (first compound 0.8 µM) it was 0.362; in assay [1] (first compound 2.53 µM) it was 0.336; in assay [1] (first compound 8 µM) it was 0.464; in assay [2] (first compound 0.005 µM) it was 0.712. Besides, the relative viability is 0.444 in assay [2] (first compound 0.01581 µM); 0.192 in assay [2] (first compound 0.05 µM); 0.101 in assay [2] (first compound 0.1581 µM); 0.0911 in assay [2] (first compound 0.5 µM); 0.852 in assay [3] (first compound 0.005 µM); 0.943 in assay [3] (first compound 0.01581 µM). In addition, the relative viability in assay [3] (first compound 0.05 µM) turned out to be 0.203; in assay [3] (first compound 0.1581 µM), 0.176; in assay [3] (first compound 0.5 µM) it was 0.104; in assay [4] (first compound 0.005 µM), 1.01; in assay [4] (first compound 0.01581 µM) it was 1.07; in assay [4] (first compound 0.05 µM) it was 0.417. Also, the relative viability in assay [4] (first compound 0.1581 µM) came to 0.355; in assay [4] (first compound 0.5 µM) it was 0.186.

For the origin of these results see the supplement of paper PMC10307832.
